This is an account of results in PMC8538004, “Identification of a Novel Neuropeptide S Receptor Antagonist Scaffold Based on the SHA-68 Core” (Pharmaceuticals, 2021).

In data set [1] the target is T1, human NPSR-107I (Homo sapiens, UniProt Q6W5P4, N107I).
T1 construct: expressed in transfected cells
T1 sequence (Q6W5P4 1-371 N107I): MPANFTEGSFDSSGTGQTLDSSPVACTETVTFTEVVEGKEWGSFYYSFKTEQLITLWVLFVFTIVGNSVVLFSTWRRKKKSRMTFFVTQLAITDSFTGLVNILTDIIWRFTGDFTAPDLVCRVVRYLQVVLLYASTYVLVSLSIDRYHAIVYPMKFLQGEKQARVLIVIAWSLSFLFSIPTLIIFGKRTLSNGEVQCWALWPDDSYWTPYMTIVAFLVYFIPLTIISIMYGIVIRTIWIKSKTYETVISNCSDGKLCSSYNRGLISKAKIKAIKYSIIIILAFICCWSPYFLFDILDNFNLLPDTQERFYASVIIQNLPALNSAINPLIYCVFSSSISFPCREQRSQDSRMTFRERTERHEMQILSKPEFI
Nature of the data set: Ca+2 mobilization assay (apparent Ke against NPS). Format: cell-based. Here is the method: A stable cell line overexpressing the human NPSR-107I was created in CHO-Gαq16 cells (RD-HGA16, Molecular Devices), as previously described. Briefly, CHO-Gαq16 cells were transfected with pcDNA 3.1 human NPSR-107I using Lipofectamine reagent. Transfected cells were plated into 10 cm^2 dishes 24 h post-transfection and were selected using Geneticin. After 2 weeks, individual clones were selected, grown to confluence, and screened in a functional 96-well calcium mobilization assay that measured the response to NPS (100 nM final). […] A final working clone was chosen for all subsequent studies based on NPS potency and the calcium mobilization signal window. CHO-Gα16-hNPSR-107I cells were cultured in Ham’s F12 media supplemented with 10% FBS, 100 units/mL penicillin, 100 μg/mL streptomycin, 200 μg/mL hygromycin, and 400 μg/mL geneticin. Media were purchased from HyClone (GE Life Sciences); FBS, penicillin/streptomycin, hygromycin, and geneticin were purchased from Invitrogen (Thermo Scientific). The day before the assay, cells were plated into 96-well black-walled assay plates at 25,000–40,000 cells/well in growth medium without selection antibiotics. Cells were incubated overnight at 37 °C, 5% CO2. The FLIPR Calcium 5 assay kit (Molecular Devices) was used according to the manufacturer’s instructions with minor modifications. Briefly, reconstituted dye was diluted in pre-warmed assay buffer (HBSS, 20 mM HEPES, 2.5 mM probenecid, pH 7.4 at 37 °C). Growth medium was removed, and the cells were gently washed with assay buffer. Calcium 5 dye was added to the cells and the plate was incubated for 45 min at 37 °C, 5% CO2. A single concentration of test compound and 10-point concentration–response curves of NPS (ranging from 100 nM to 1 pM) were prepared at 10× the desired final concentration. Cells were pretreated with the test compound or vehicle in a final concentration of 0.25% BSA/1% DMSO for 15 min at 37 °C. Assay plates were read with a FlexStation II instrument (excitation at 485 nm, detection at 525 nm, Molecular Devices). Calcium-mediated changes in fluorescence were monitored every 1.5 s over a 90 s time period. NPS was added during the read and the maximum kinetic […] (SoftMax [Max-Min], Molecular Devices) in relative fluorescent units (RFU) was measured. Data were fitted to a three-parameter logistic curve to generate EC50 values (GraphPad Prism 6.0). Antagonism was quantified by measuring the ratio of equi-active concentrations of agonist measured in the presence or absence of the antagonist. Apparent Ke values were calculated using the equation Ke = [L]/((EC50^+/EC50^−) − 1), where [L] is the concentration of test compound, EC50^+ is the EC50 of NPS with test compound, and EC50^– is the EC50 of NPS alone. Ke values were considered valid when the EC50^+/EC50^− ratio was at least 4. HBSS and HEPES were purchased from Gibco (Thermo Scientific); probenecid, BSA, and DMSO were purchased from Sigma-Aldrich.

Data set [2] in a line: Glutathione incubation assay. Format: physicochemical. To be noted: 2 mM compound, 18 mM glutathione, MeCN/water, up to 48 h, LC/MS. Here is the method: For the glutathione incubation assay, 20 mM stock solutions of compound 14b in MeCN (400 µL) and glutathione GSH in MeCN: Milli-Q H2O (10 mL, 1: 1, v/v) were prepared in separate scintillation vials. To prepare the incubation solution, 100 µL of 14b solution and 900 µL of GSH solution were taken in a clean HPLC vial. The final concentrations of 14b and GSH were 2 mM and 18 mM, respectively. In addition, a 2 mM reference solution of 14b was prepared by adding 100 µL of 14b stock solution to an HPLC vial containing 900 µL of MeCN: H2O (1:1), and an 18 mM reference solution of GSH was prepared by adding 900 µL of GSH stock solution to an HPLC vial containing 100 µL of MeCN.
Low-resolution mass spectra were obtained using an Agilent InfinityLab MSD single quadrupole mass spectrometer system (ESI). […] Chromatograms were detected using 254 and 280 nm wavelengths with 5 µL injections and data were processed using a general walkup method*.
*LC/MS Walkup Method: an Agilent InfinityLab MSD single quadrupole mass spectrometer equipped with an API-ES and an Agilent Infinity II 1260 HPLC equipped with an Agilent Infinity 1260 variable wavelength detector and a Phenomenex Synergi […] Hydro-RP 100A C18 30 × 2 mm column. […] MS Method: using atmospheric pressure ionization–electrospray, positive and negative ions were monitored in the range of 70–700 or 200–2000 (for compounds with a MW > 700).

Entries after “also recorded” stand apart in the source; their conditions may differ.

Consider `CC(C)CC1(c2ccccc2)OC(=O)C2=C1CN(C(=O)NCc1ccccc1)CC2` (single isomer, unassigned; (+)) [Compound 14b, (+) N-benzyl-3-(2-methylpropyl)-1-oxo-3-phenyl-1H,3H,4H,5H,6H,7H-furo[3,4-c]pyridine-5-carboxamide], for which, in data set [1] (3 µM concentration, calcium mobilization assay), the “Shift of the agonist activity of NPS” value is “significant right shift”. In addition, in data set [1] (Calcium Mobilization, CHO-Gα16-hNPSR-107I cells, shift of NPS EC50), the Kb was 71.4 nM. In addition, the “Potency relative to SHA-68” value in data set [1] (in vitro antagonist potency) was “approximately sevenfold less potent”. Moreover, the Glutathione adduct formation entry in data set [2] is “No glutathione adduct was identified; also recorded: stable”.
